Results as given in PubChem BioAssay (NCI).
Values joined by “and” are separate entries in the source; they are usually repeats but may differ in a detail not shown here. Identical values can stand only once.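 Assay format: 96-well plates, 48-hour exposure. At the GI50, growth is halved. At the TGI there is no net growth.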

Key:
Assay in all cases: NCI-60 cell line screen, 48 h
A498 renal = test system: A498 renal
SK-MEL-5 melanoma = test system: SK-MEL-5 melanoma
SR leukemia = test system: SR leukemia
SF-295 CNS = test system: SF-295 CNS
NCI/ADR-RES ovarian = test system: NCI/ADR-RES ovarian
U251 CNS = test system: U251 CNS
SNB-19 CNS = test system: SNB-19 CNS
OVCAR-5 ovarian = test system: OVCAR-5 ovarian
HL-60(TB) leukemia = test system: HL-60(TB) leukemia
SNB-75 CNS = test system: SNB-75 CNS

| SMILES | TGI (A498 renal) | TGI (SK-MEL-5 melanoma) | TGI (SR leukemia) | TGI (SF-295 CNS) | TGI (NCI/ADR-RES ovarian) | TGI (U251 CNS) | TGI (SNB-19 CNS) | TGI (OVCAR-5 ovarian) | TGI (HL-60(TB) leukemia) | TGI (SNB-75 CNS) | GI50 (A498 renal) [µM] | GI50 (SNB-75 CNS) [µM] | GI50 (SK-MEL-5 melanoma) [µM] | GI50 (SR leukemia) | GI50 (SF-295 CNS) [µM] | GI50 (NCI/ADR-RES ovarian) [µM] | GI50 (U251 CNS) [µM] | GI50 (SNB-19 CNS) [µM] | GI50 (OVCAR-5 ovarian) [µM] | GI50 (HL-60(TB) leukemia) [µM] |
| --- | --- | --- | --- | --- | --- | --- | --- | --- | --- | --- | --- | --- | --- | --- | --- | --- | --- | --- | --- | --- |
| O=C(NCc1cccs1)OC1CC2CCC1C2 (centres undefined) | > 100 µM | > 100 µM | > 100 µM | > 100 µM | > 100 µM | > 100 µM | > 100 µM | > 100 µM | > 100 µM | – | – | – | – | – | – | – | – | – | – | – |
| COc1ccc(OC)c(-c2cc(C(=O)O)c3cc4ccccc4cc3n2)c1 | > 100 µM | > 100 µM | > 100 µM | > 100 µM | > 100 µM | > 100 µM | > 100 µM | > 100 µM | > 100 µM | > 100 µM | – | – | – | – | – | – | – | – | – | – |
| [O]=[W](=[O])([OH])[OH] | > 100 µM | > 100 µM | > 100 µM | > 100 µM | > 100 µM | > 100 µM | > 100 µM | > 100 µM | > 100 µM | > 100 µM | > 100 | > 100 | > 100 | > 100 µM | > 100 | > 100 | > 100 | > 100 | > 100 | > 100 |
| Cc1cc2c(=O)c3ccccc3oc2c(C#N)c1C | > 100 µM | > 100 µM | > 100 µM | > 100 µM | > 100 µM | > 100 µM | > 100 µM | > 100 µM | > 100 µM | > 100 µM | – | – | – | – | – | – | – | – | – | – |
| C(=C\c1nc2ccccc2s1)/c1ccc(N2CCOCC2)s1 | > 100 µM | > 100 µM | > 100 µM | 95.4 µM | > 100 µM | > 100 µM | > 100 µM | > 100 µM | > 100 µM | > 100 µM | > 100 | 31.6 | 21.8 | 58.9 µM | 24.2 | 37.1 | 44.8 | 51.4 | 66.9 | > 100 |
| CN1CCN(CCCN2c3ccccc3Sc3ccc(C(F)(F)F)cc32)CC1 | 12.9 µM and 29.5 µM and 26.7 µM | 3.04 µM and 4.34 µM and 6.17 µM | 7.95 µM and > 20.4 µM and 27.2 µM | 3.68 µM and 15.8 µM and 23.2 µM | 4.61 µM and 25 µM and 25.5 µM | 3.56 µM and 18.1 µM and 21.4 µM | 4.45 µM and 26.8 µM and 29.3 µM | 4.28 µM and 24.9 µM and 23.2 µM | 4.92 µM and 17.7 µM and 22.7 µM | 22.7 µM and 16.8 µM and 20.8 µM | 2.4 | 6.4 | 1.65 | 2.72 µM and 2.09 µM and 8.62 µM | 1.76 | 1.91 | 1.7 | 1.86 | 1.99 | 2.78 |
| N#C/C(=C\c1ccc([N+](=O)[O-])s1)c1nc2cc(Br)ccc2s1 | > 100 µM | 0.311 µM | 1.77 µM | > 100 µM | 0.827 µM | 0.986 µM | > 100 µM | – | > 100 µM | – | 8.05 | 0.355 | 0.167 | 0.0856 µM | – | 0.276 | 0.298 | 0.369 | – | 3.82 |
| NCC(=O)NC(CO)C(=O)O (centres undefined) | > 100 µM | > 100 µM | – | > 100 µM | > 100 µM | > 100 µM | > 100 µM | > 100 µM | > 100 µM | > 100 µM | – | – | – | – | – | – | – | – | – | – |
